In ChEMBL document CHEMBL1201862, “PubChem BioAssay data set” (2004):
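Each compound was tested at five concentrations against cells in 96-well plates for 48 hours. Abbreviation: GI50, concentration required for 50% inhibition of growth.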 Activity calls are given as the source filed them. Cut-off read from the data, not from the text of the source: active = GI50 up to about 1.1 µM and inactive = higher.

What was measured:
Assay in all cases: DTP human tumour cell line panel, 48 h
T47D = system: T47D
OVCAR-3 = system: OVCAR-3
OVCAR-8 = system: OVCAR-8
CAKI-1 = system: CAKI-1
HCT-116 = system: HCT-116
MOLT-4 = system: MOLT-4
U-251 = system: U-251
DU-145 = system: DU-145
OVCAR-4 = system: OVCAR-4
SF-268 = system: SF-268
CCRF-CEM = system: CCRF-CEM
SNB-19 = system: SNB-19
HCC 2998 = system: HCC 2998
SK-MEL-5 = system: SK-MEL-5
NCI-H23 = system: NCI-H23
KM12 = system: KM12
MDA-MB-231 = system: MDA-MB-231
HL-60 = system: HL-60
SK-MEL-28 = system: SK-MEL-28
TK-10 = system: TK-10

Compound	GI50 (T47D)	GI50 (OVCAR-3)	GI50 (OVCAR-8)	GI50 (CAKI-1)	GI50 (HCT-116)	GI50 (MOLT-4)	GI50 (U-251)	GI50 (DU-145)	GI50 (OVCAR-4)	GI50 (SF-268)	GI50 (CCRF-CEM)	GI50 (SNB-19)	GI50 (HCC 2998)	GI50 (SK-MEL-5)	GI50 (NCI-H23)	GI50 (KM12)	GI50 (MDA-MB-231)	GI50 (HL-60)	GI50 (SK-MEL-28)	GI50 (TK-10)
Cc1cc(O)nc2cc3oc4ccccc4c3cc12	> 100 µM (inactive)	> 33.6 µM (inactive)	> 100 µM (inactive)	> 100 µM (inactive)	27.5 µM (inactive)	3.71 µM (inactive)	17.1 µM (inactive)	> 100 µM (inactive)	> 62.2 µM (inactive)	28.1 µM (inactive)	11.5 µM (inactive)	> 50.6 µM (inactive)	2.72 µM (inactive)	7.52 µM (inactive)	> 68.5 µM (inactive)	70.1 µM (inactive)	52 µM (inactive)	17.6 µM (inactive)	> 100 µM (inactive)	30.6 µM (inactive)
Cc1ccc(/C=N/Nc2nncc3ccccc23)s1	> 100 µM (inactive)	> 55.8 µM (inactive)	65.2 µM (inactive)	> 100 µM (inactive)	59.6 µM (inactive)	> 100 µM (inactive)	53.2 µM (inactive)	> 31.6 µM (inactive)	26.3 µM (inactive)	> 58.1 µM (inactive)	> 100 µM (inactive)	> 100 µM (inactive)	> 72.8 µM (inactive)	> 100 µM (inactive)	> 83.8 µM (inactive)	> 46.2 µM (inactive)	33 µM (inactive)	> 100 µM (inactive)	> 100 µM (inactive)	> 52 µM (inactive)
CC(Cc1cccc2c1Nc1ccccc1S2)N(C)CCO (stereo not given)	> 100 µM (inactive)	> 100 µM (inactive)	> 100 µM (inactive)	> 100 µM (inactive)	> 100 µM (inactive)	> 100 µM (inactive)	> 100 µM (inactive)	> 100 µM (inactive)	> 100 µM (inactive)	> 100 µM (inactive)	> 100 µM (inactive)	> 100 µM (inactive)	> 100 µM (inactive)	> 100 µM (inactive)	> 100 µM (inactive)	> 100 µM (inactive)	> 100 µM (inactive)	> 100 µM (inactive)	> 100 µM (inactive)	> 100 µM (inactive)
CC(=O)OC1=C(c2ccccc2)S(=O)(=O)c2ccccc21	> 100 µM (inactive)	> 100 µM (inactive)	> 100 µM (inactive)	> 100 µM (inactive)	> 100 µM (inactive)	> 100 µM (inactive)	> 100 µM (inactive)	> 100 µM (inactive)	> 100 µM (inactive)	> 100 µM (inactive)	96.4 µM (inactive)	> 100 µM (inactive)	> 100 µM (inactive)	> 100 µM (inactive)	> 100 µM (inactive)	> 100 µM (inactive)	> 100 µM (inactive)	> 100 µM (inactive)	> 100 µM (inactive)	> 100 µM (inactive)
C[C@]12CC[C@H](O)CC1=CC[C@@H]1C2CC[C@]2(C)Nc3c(cnn3-c3ccc(F)cc3)CC12 (stereo not given in full)	> 42.7 µM (inactive)	48.5 µM (inactive)	23.3 µM (inactive)	64.6 µM (inactive)	14.7 µM (inactive)	3.48 µM (inactive)	6.3 µM (inactive)	32 µM (inactive)	19 µM (inactive)	26.1 µM (inactive)	2.94 µM (inactive)	19.3 µM (inactive)	> 68.2 µM (inactive)	25.2 µM (inactive)	26.5 µM (inactive)	29.4 µM (inactive)	> 41.8 µM (inactive)	4.12 µM (inactive)	3.49 µM (inactive)	78.2 µM (inactive)
CCOc1cc(NC(C)=O)ccc1C(=O)NNC(=O)c1ccccc1OC(C)=O	8.55 µM (inactive)	3.24 µM (inactive)	6.3 µM (inactive)	3.21 µM (inactive)	3.59 µM (inactive)	0.995 µM (active)	4.69 µM (inactive)	8.28 µM (inactive)	4.32 µM (inactive)	7.24 µM (inactive)	4.22 µM (inactive)	21.9 µM (inactive)	4.95 µM (inactive)	5.78 µM (inactive)	18 µM (inactive)	7.08 µM (inactive)	4.42 µM (inactive)	4.28 µM (inactive)	21.5 µM (inactive)	1.5 µM (inactive)
N#Cc1ncn(CCO)c1N	> 100 µM (inactive)	> 100 µM (inactive)	> 100 µM (inactive)	> 100 µM (inactive)	> 100 µM (inactive)	> 100 µM (inactive)	> 100 µM (inactive)	> 100 µM (inactive)	> 100 µM (inactive)	> 100 µM (inactive)	> 100 µM (inactive)	> 100 µM (inactive)	> 100 µM (inactive)	> 100 µM (inactive)	> 100 µM (inactive)	> 100 µM (inactive)	> 100 µM (inactive)	> 100 µM (inactive)	> 100 µM (inactive)	> 100 µM (inactive)
NC(C(F)(F)F)(C(F)(F)F)P(=O)(c1ccccc1)c1ccccc1	> 100 µM (inactive)	> 100 µM (inactive)	> 100 µM (inactive)	> 100 µM (inactive)	> 100 µM (inactive)	> 100 µM (inactive)	> 100 µM (inactive)	> 100 µM (inactive)	> 100 µM (inactive)	> 100 µM (inactive)	> 100 µM (inactive)	> 100 µM (inactive)	> 100 µM (inactive)	> 100 µM (inactive)	> 100 µM (inactive)	> 100 µM (inactive)	> 100 µM (inactive)	> 100 µM (inactive)	> 100 µM (inactive)	> 100 µM (inactive)
Nc1cccc(C2CCCc3c2[nH]c2ccccc32)c1 (stereo not given)	12.1 µM (inactive)	26.7 µM (inactive)	17.7 µM (inactive)	23.9 µM (inactive)	13.4 µM (inactive)	20.6 µM (inactive)	14.6 µM (inactive)	27 µM (inactive)	25.5 µM (inactive)	17.2 µM (inactive)	15.3 µM (inactive)	12 µM (inactive)	22.6 µM (inactive)	17.4 µM (inactive)	19.1 µM (inactive)	17.5 µM (inactive)	15.8 µM (inactive)	19.5 µM (inactive)	26.5 µM (inactive)	32.4 µM (inactive)
[N-]=[N+]=Nc1ccc2c(c1)Sc1ccccc1N2CCCCN1CCN(C(=O)CCNC(=O)Cc2ccc(C(=O)c3ccccc3)cc2)CC1	5.36 µM (inactive)	4.5 µM (inactive)	7.03 µM (inactive)	8.61 µM (inactive)	3.54 µM (inactive)	1.54 µM (inactive)	4.23 µM (inactive)	4.93 µM (inactive)	3.48 µM (inactive)	3.84 µM (inactive)	1.79 µM (inactive)	8.17 µM (inactive)	2.53 µM (inactive)	2.11 µM (inactive)	4.78 µM (inactive)	3.31 µM (inactive)	4.74 µM (inactive)	2.54 µM (inactive)	4.81 µM (inactive)	13.2 µM (inactive)
Nc1nc(O)nc2snnc12	4.57 µM (inactive)	> 100 µM (inactive)	5.71 µM (inactive)	1.77 µM (inactive)	7.89 µM (inactive)	7.6 µM (inactive)	25.1 µM (inactive)	16.9 µM (inactive)	> 53.7 µM (inactive)	5.04 µM (inactive)	14.9 µM (inactive)	> 87.9 µM (inactive)	> 65.6 µM (inactive)	> 74.3 µM (inactive)	> 100 µM (inactive)	> 100 µM (inactive)	7.13 µM (inactive)	2.79 µM (inactive)	6.27 µM (inactive)	> 22.4 µM (inactive)
COc1cc2c(cc1OC)C(=O)/C(=C/c1ccc(Cl)cc1)CC2	> 10 µM (inactive)	> 10 µM (inactive)	> 10 µM (inactive)	> 10 µM (inactive)	> 10 µM (inactive)	> 10 µM (inactive)	> 10 µM (inactive)	> 10 µM (inactive)	> 10 µM (inactive)	> 10 µM (inactive)	> 10 µM (inactive)	> 10 µM (inactive)	> 10 µM (inactive)	> 10 µM (inactive)	> 10 µM (inactive)	> 10 µM (inactive)	> 10 µM (inactive)	> 10 µM (inactive)	> 10 µM (inactive)	> 10 µM (inactive)
O=C1CC(Nc2ccccc2)c2c(Cl)sc(Cl)c21 (stereo not given)	1.48 µM (inactive)	1.79 µM (inactive)	1.4 µM (inactive)	0.65 µM (active)	1.19 µM (inactive)	0.484 µM (active)	1.68 µM (inactive)	1.6 µM (inactive)	2.01 µM (inactive)	0.778 µM (active)	0.127 µM (active)	5.19 µM (inactive)	1.76 µM (inactive)	4.66 µM (inactive)	1.91 µM (inactive)	0.483 µM (active)	1.92 µM (inactive)	0.199 µM (active)	1.86 µM (inactive)	1.81 µM (inactive)
CCN1/C(=C/c2ccc3ccccc3[n+]2CC)C=Cc2ccccc21	0.22 µM (active)	0.269 µM (active)	0.555 µM (active)	10 µM (inactive)	0.509 µM (active)	0.641 µM (active)	0.131 µM (active)	0.867 µM (active)	0.617 µM (active)	1.27 µM (inactive)	0.26 µM (active)	0.541 µM (active)	0.482 µM (active)	0.329 µM (active)	0.551 µM (active)	0.149 µM (active)	1.77 µM (inactive)	1.09 µM (active)	1.15 µM (inactive)	2.81 µM (inactive)
